# Measurements from patent US20030228621A1, “Common ligand universal enzyme assay and compositions for use therein” (priority 2002, published 2003).
# Where two headings read alike, the source gives them in different places.
# Key:
# [1] = target: Lactate dehydrogenase (LDH); experiment: Enzyme activity in presence and absence of varying concentration of dye, LDH; type: biochemical; settings: read-out: Inhibition (IC50, nM) LDH
# Protocol: (§1) In search for specific ligands with potent binding to several dehydrogenases we screened our internal enzyme panel. In brief, activity of the enzymes was measured in the presence and absence of the varying concentration of the dyes.
# [2] = target: DOXPR (Escherichia coli, UniProt P45568); experiment: Displacement of FITC-NADPH from the FITC-NADPH:DOXPR complex; type: binding
# Description: (§2) The competitive binding of the dye common ligands of the present invention can be evaluated by use of a displacement assay. In particular, enzyme in the presence of a competitive ligand will have less FITC-NADPH bound if both ligands compete for the same site. […] The dye common ligands of the present invention can completely displace FITC-NADPH from complexes containing this fluorescent tracer and a dehydrogenase. […] Thus, dye common ligands of the invention are useful in displacement assays to study the activity of an oxidoreductase, particularly those having unknown function.
# (§3) In competitive assays, the tested dyes displaced the fluorescent-based tracer FITC-NADPH, implying that the dyes bind to DOXPR at the common ligand site. In this assay, enzyme in the presence of the ligand has less FITC-NADPH bound if both of the ligands compete for the same site. […] Calculated Kd values were based on curve shape and were lower than the experimentally determined IC50s.
# (§4) A population of 620 compounds were screened in the competitive displacement assay described herein. […] These compounds are depicted in FIG. 16.
# [3] = target: Deoxy-D-xylulose 5-phosphate reductoisomerase (DOXPR) (Escherichia coli, UniProt P45568); experiment: Enzyme activity in presence and absence of varying concentration of dye, DOXPR; type: biochemical; settings: for IC50: NADPH at sixteen times its Km, read-out: Inhibition (IC50, nM) DOXPR
# Protocol: as §1
# (§5) In this assay, the oxidoreductase common ligand (NADPH) was employed at a concentration sixteen times its Km value. Use of such a high concentration of oxidoreductase common ligand results in a calculated IC50 value at least 17-fold that of the dissociation constant (Kd).
# [4] = target: T1, dihydrodipicolinate reductase (DHPR) (Escherichia coli, UniProt P04036); experiment: Enzyme activity in presence and absence of varying concentration of dye, DHPR; type: biochemical; settings: for IC50: read-out: Inhibition (IC50, nM) DHPR
# Protocol: as §1
# [5] = target: T1, dihydrodipicolinate reductase (DHPR); experiment: Fluorescence polarization displacement of FITC-NADH from dihydrodipicolinate reductase; type: binding
# Protocol: FITC-NADH was dissolved in 10 mM TAPS buffer with 5% NaHCO3, pH=8. The final concentration of FITC-NADH was 150 μM. In later experiments 150 μM FITC-NADH was diluted to the desired concentration in 20 mM Potassium Phosphate buffer, pH=7.4. Fluorescence polarization was monitored using a Beacon 2000 Variable Temperature Fluorescence Polarization System (PanVera Corporation, Madison, Wis.) and an LJL Analyst HT 96-384 (Molecular Devices Corporation, Sunnyvale, Calif.). The concentration of FITC-NADH as fluorescent tracer was selected by measuring fluorescence polarization of varying concentrations of FITC-NADH in 10 mM Potassium Phosphate buffer, pH=7.4. The concentration range was 0.15 nM—15 nM. For the best signal to noise ratio regarding both the horizontal and vertical intensities that contribute to the fluorescence polarization value, a concentration of 25 nM was chosen for FITC-NADH in the majority of experiments.
# The fluorescence polarization of solutions of 7 μM dihydrodipicolinate reductase and 25 nM FITC-NADH with NADH was measured. The concentration of dihydrodipicolinate reductase was such that a solution of dihydrodipicolinate reductase and FITC-NADH would give the fluorescence polarization mP value of 220-230 mP. The blank was protein in buffer and NADH. […] The data was fitted to the following equation:
# mP=YH′−(YH′−YL)*(1/(1+Kd^app/C))
# Kd=Kd^app*(1/(1+A/Kd^tracer))
# (§6) where C is the concentration of NADH; A is the concentration of enzyme; YH′ is the polarization for the FITC-NADH at the specified enzyme concentration in the absence of NADH; YL is the polarization for FITC-NADH when fully displaced from the enzyme by NADH; and Kd^tracer is the dissociation constant of the enzyme for FITC-NADH.
# The displacement of FITC-NADH from dihydrodipicolinate reductase in the presence of the candidate inhibitor compound bromaminic acid, an NMNH-mimic (nicotinamide mononucleotide mimic), was measured by fluorescence polarization assay. The concentration of dihydrodipicolinate reductase was such that dihydrodipicolinate reductase in the presence of FITC-NADH would give the fluorescence polarization, mP, value of 220-230. Protein in buffer combined with the inhibitor was used as the blank.
# The Log(bromaminic acid, μM) versus Polarization (mP) data were fitted to the following equation: […]
# as §6
# In this assay, enzyme in the presence of the ligand has less FITC-NADPH bound if both of the ligands compete for the same site.
# as §4
# [6] = target: T2, 3-Hydro-3-methyl-glutaryl-CoA reductase (HMGCoAR) (Homo sapiens, UniProt P04035); experiment: Enzyme activity in presence and absence of varying concentration of dye, HMGCoAR; type: biochemical; settings: read-out: Inhibition (IC50, nM) HMGCoAR
# T2 sequence (P04035 1-888): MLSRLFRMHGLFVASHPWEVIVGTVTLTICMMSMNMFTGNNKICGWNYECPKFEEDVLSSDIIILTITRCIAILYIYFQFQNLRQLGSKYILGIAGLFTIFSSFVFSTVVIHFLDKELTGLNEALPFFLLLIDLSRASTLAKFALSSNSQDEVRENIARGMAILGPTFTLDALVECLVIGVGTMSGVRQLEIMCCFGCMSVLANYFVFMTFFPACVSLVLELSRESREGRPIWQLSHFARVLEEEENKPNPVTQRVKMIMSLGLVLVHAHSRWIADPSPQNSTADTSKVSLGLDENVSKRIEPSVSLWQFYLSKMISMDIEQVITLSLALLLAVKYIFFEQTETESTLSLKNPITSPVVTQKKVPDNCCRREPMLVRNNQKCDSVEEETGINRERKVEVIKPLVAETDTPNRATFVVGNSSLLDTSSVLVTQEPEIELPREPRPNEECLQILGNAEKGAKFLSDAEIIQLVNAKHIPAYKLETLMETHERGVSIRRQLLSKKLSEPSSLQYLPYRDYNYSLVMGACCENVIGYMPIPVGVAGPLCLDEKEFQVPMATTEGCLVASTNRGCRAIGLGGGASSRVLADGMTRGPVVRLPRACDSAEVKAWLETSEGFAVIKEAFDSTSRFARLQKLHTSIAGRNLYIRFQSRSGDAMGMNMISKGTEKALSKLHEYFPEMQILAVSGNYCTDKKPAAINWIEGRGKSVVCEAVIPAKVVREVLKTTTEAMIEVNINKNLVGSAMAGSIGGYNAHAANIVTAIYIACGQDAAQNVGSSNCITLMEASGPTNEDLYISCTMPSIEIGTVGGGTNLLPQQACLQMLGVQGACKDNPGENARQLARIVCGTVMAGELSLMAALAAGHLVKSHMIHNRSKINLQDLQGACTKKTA
# Protocol: as §1
# [7] = test system: dehydrogenases; experiment: Extent and reversibility of inhibition of the dehydrogenase panel by triazinyl dyes; type: biochemical
# Protocol: as §1
# Since all of the dye molecules have a triazinyl reactive group, reversibility of the inhibition was checked.
# as §5
# [8] = target: Enoyl-acyl carrier protein reductase (EACPR) (Escherichia coli, UniProt P0AEK4); experiment: Enzyme activity in presence and absence of varying concentration of dye, EACPR; type: biochemical; settings: read-out: Inhibition (IC50, nM) EACPR
# Protocol: as §1
# [9] = target: DHPR (Escherichia coli, UniProt P04036); experiment: Intrinsic fluorescence of the compound upon binding to the enzyme; settings: excitation 365 nm, emission 435 nm
# Description: It can be used either as a tracer for the screening, with or without being labeled with a detectable moiety of the invention. As such, this compound can be used for screening candidate ligands.
# [10] = target: 1-deoxy-D-xylulose 5-phosphate reductoisomerase (DOXPR) (Escherichia coli, UniProt P45568); experiment: Displacement of FITC-NADPH from the FITC-NADPH:DOXPR complex (FIG. 14A, 14B); type: binding; settings: displacement of FITC-NADPH tracer from DOXPR
# Description: as §2, §3
# [11] = calculated from curve shape, read-out: Kd from displacement experiments with FITC-NADH and DHPR
# [12] = 7 μM DHPR, 25 nM FITC-NADH, not corrected for enzyme concentration, read-out: Kapp (Kd app), displacement of FITC-NADH
# [13] = 7 μM DHPR, 25 nM FITC-NADH, read-out: actual Kd after correction for enzyme concentration
# Deoxy-D-xylulose 5-phosphate reductoisomerase (DOXPR), sequence (P45568 whole entry): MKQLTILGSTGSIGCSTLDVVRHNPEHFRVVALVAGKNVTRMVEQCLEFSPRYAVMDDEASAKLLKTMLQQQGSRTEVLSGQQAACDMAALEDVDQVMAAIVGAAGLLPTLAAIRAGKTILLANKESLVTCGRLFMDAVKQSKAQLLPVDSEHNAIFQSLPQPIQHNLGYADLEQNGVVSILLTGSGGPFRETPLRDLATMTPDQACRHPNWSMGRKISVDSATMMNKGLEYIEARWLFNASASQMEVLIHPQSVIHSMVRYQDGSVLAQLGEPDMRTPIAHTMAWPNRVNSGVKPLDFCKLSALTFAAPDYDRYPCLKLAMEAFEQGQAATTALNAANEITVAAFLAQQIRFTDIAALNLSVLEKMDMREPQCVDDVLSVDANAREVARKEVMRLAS
# T1 sequence (P04036 whole entry): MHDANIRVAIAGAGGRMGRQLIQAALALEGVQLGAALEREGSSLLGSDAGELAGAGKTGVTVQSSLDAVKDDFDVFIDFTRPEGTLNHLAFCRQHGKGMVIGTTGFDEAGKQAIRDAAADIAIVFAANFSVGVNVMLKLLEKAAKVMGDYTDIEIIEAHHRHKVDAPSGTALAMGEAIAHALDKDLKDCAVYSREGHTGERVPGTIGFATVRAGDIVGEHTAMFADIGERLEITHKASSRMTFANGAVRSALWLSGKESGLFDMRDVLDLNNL
# Enoyl-acyl carrier protein reductase (EACPR), sequence (P0AEK4 whole entry): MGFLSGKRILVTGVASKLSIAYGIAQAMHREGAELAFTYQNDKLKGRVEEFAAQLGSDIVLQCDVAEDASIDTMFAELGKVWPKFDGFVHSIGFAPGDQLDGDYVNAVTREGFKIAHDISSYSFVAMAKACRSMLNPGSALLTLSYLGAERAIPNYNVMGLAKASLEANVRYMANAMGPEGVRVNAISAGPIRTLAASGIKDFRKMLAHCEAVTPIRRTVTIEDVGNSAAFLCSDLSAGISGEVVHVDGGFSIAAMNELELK
# DOXPR, sequence (P45568 whole entry): as the sequence (P45568 whole entry) above
# 1-deoxy-D-xylulose 5-phosphate reductoisomerase (DOXPR), sequence (P45568 whole entry): as above
# DHPR, sequence (P04036 whole entry): as the sequence (P04036 whole entry) above
compound,measurement,setting,value
Reactive Green 5,IC50,[1],590 nM
same,displacement of FITC-NADPH from the FITC-NADPH:DOXPR complex,[2],completely displaced
same,mode of inhibition versus oxidoreductase common ligand (NADPH),[3],competitive
same,IC50,[4],230 nM
same,Kd,[5]; [11],15 nM
same,IC50,[6],44 nM
same,reversibility of the inhibition,[7],full reversible inhibition
Nc1c(S(=O)(=O)O)cc(Br)c2c1C(=O)c1ccccc1C2=O [bromaminic acid],Kd,[5]; [12],30000 ± 2200 nM
same,Kd,[5]; [13],5000 nM
Nc1c(S(=O)(=O)O)cc(Nc2ccc(Nc3nc(Cl)nc(Nc4cccc(S(=O)(=O)O)c4)n3)c(S(=O)(=O)O)c2)c2c1C(=O)c1ccccc1C2=O [Reactive Blue 2],IC50,[8],2500 nM
same,IC50,[1],1500 nM
same,IC50,[3],2000 nM
same,IC50,[4],1100 nM
same,IC50,[6],1000 nM
same,reversibility of the inhibition,[7],full reversible inhibition
"NC(=O)C1=CN([C@@H]2O[C@H](COP(=O)(O)OP(=O)(O)OC[C@H]3O[C@@H](n4cnc5c(N)ncnc54)[C@H](O)[C@@H]3O)[C@@H](O)[C@H]2O)C=CC1 [NADH, Reduced nicotinamide adenine dinucleotide]",Kd,[5]; [12],1200 ± 150 nM
same,Kd,[5]; [13],200 nM
O=S(=O)(O)c1cc(Nc2nc(Nc3ccccc3)nc(N(CCO)CCO)n2)ccc1/C=C\c1ccc(Nc2nc(Nc3ccccc3)nc(N(CCO)CCO)n2)cc1S(=O)(=O)O,Kd,"[5]; compound from screen of 620 compounds, read-out: kd, tight binding to DHPR",< 100 nM
same,increase in intrinsic fluorescence upon binding to the enzyme,[9],3 fold
Sulphophthalocyanine,binding to DOXPR,[3]; tested for inhibition of DOXPR,binds
same,binding to DHPR,[4]; tested for inhibition of DHPR,binds
O=S(=O)(O)c1cc(Nc2nc(Cl)nc(Nc3ccc(Nc4nc(Cl)nc(Nc5cc(S(=O)(=O)O)cc6cc(S(=O)(=O)O)c(N=Nc7ccccc7S(=O)(=O)O)c(O)c56)n4)cc3)n2)c2c(O)c(N=Nc3ccccc3S(=O)(=O)O)c(S(=O)(=O)O)cc2c1 [Reactive Red 120],IC50,[8],246 nM
same,IC50,[1],9.7 nM
same,displacement of FITC-NADPH from the FITC-NADPH:DOXPR complex,[2],completely displaced
same,mode of inhibition versus oxidoreductase common ligand (NADPH),[3],competitive
same,IC50,[3],230 nM
same,IC50,[4],220 nM
same,Kd,[5]; [11],54 nM
same,IC50,[6],360 nM
same,Kd,"[10]; calculated, based on curve shape",5.8 nM
same,IC50,[10],310 nM
same,reversibility of the inhibition,[7],full reversible inhibition
